How the values were obtained:
Assay in all cases: relative viability (nuclei count vs DMSO), 5 days (fraction); higher = more cells survive
RAF265 + Dasatinib = compound: Cn1c(Nc2ccc(C(F)(F)F)cc2)nc2cc(Oc3ccnc(-c4ncc(C(F)(F)F)[nH]4)c3)ccc21 [RAF265] + Cc1nc(Nc2ncc(C(=O)Nc3c(C)cccc3Cl)s2)cc(N2CCN(CCO)CC2)n1 [Dasatinib] (partner 0.075 µM)
In short: (§1)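 Lung cancer cell lines in 1536-well plates were dosed by pin tool the day after seeding, either with one drug alone or with a fixed anchor-drug dose plus five library-drug doses (not always all listed) in √10 steps. After 5 days, cells were fixed and their nuclei stained in one step (final 0.05% Triton X-100, 1% formaldehyde, 1 ug/ml Hoechst), then counted on 4× images. Relative viability is the nuclei count in treated wells divided by that in vehicle wells. Values are medians of duplicate plates.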

Doramapimod + Vorinostat = compound: Cc1ccc(-n2nc(C(C)(C)C)cc2NC(=O)Nc2ccc(OCCN3CCOCC3)c3ccccc23)cc1 [Doramapimod] + O=C(CCCCCCC(=O)Nc1ccccc1)NO [Vorinostat] (partner 1 µM)
In short: as §1

IPA-3 + Alpelisib = compound: C1=CC=C2C(=C1)C=CC(=C2SSC3=C(C=CC4=CC=CC=C43)O)O [IPA-3] + Cc1nc(NC(=O)N2CCC[C@H]2C(N)=O)sc1-c1ccnc(C(C)(C)C(F)(F)F)c1 [Alpelisib] (partner 2 µM)
In short: as §1

Doramapimod + Trametinib = compound: Cc1ccc(-n2nc(C(C)(C)C)cc2NC(=O)Nc2ccc(OCCN3CCOCC3)c3ccccc23)cc1 [Doramapimod] + CC(=O)Nc1cccc(-n2c(=O)n(C3CC3)c(=O)c3c(Nc4ccc(I)cc4F)n(C)c(=O)c(C)c32)c1 [Trametinib] (partner 0.02 µM)
In short: as §1

Cell Line	relative viability (RAF265 + Dasatinib; first compound 0.01 µM)	relative viability (RAF265 + Dasatinib; first compound 0.03162 µM)	relative viability (RAF265 + Dasatinib; first compound 0.1 µM)	relative viability (RAF265 + Dasatinib; first compound 0.3162 µM)	relative viability (RAF265 + Dasatinib; first compound 1 µM)	relative viability (Doramapimod + Vorinostat; first compound 0.02 µM)	relative viability (Doramapimod + Vorinostat; first compound 0.06325 µM)	relative viability (Doramapimod + Vorinostat; first compound 0.2 µM)	relative viability (Doramapimod + Vorinostat; first compound 0.6325 µM)	relative viability (Doramapimod + Vorinostat; first compound 2 µM)	relative viability (IPA-3 + Alpelisib; first compound 0.2 µM)	relative viability (IPA-3 + Alpelisib; first compound 0.6325 µM)	relative viability (IPA-3 + Alpelisib; first compound 2 µM)	relative viability (IPA-3 + Alpelisib; first compound 6.325 µM)	relative viability (IPA-3 + Alpelisib; first compound 20 µM)	relative viability (Doramapimod + Trametinib; first compound 0.02 µM)	relative viability (Doramapimod + Trametinib; first compound 0.06325 µM)	relative viability (Doramapimod + Trametinib; first compound 0.2 µM)	relative viability (Doramapimod + Trametinib; first compound 0.6325 µM)	relative viability (Doramapimod + Trametinib; first compound 2 µM)
NCI-H1355	0.804	0.709	0.545	0.601	0.264	0.621	0.577	0.64	0.704	0.566	0.918	0.782	0.809	0.797	0.802	0.456	0.393	0.376	0.43	0.408
EKVX	0.598	0.606	0.756	–	0.382	0.819	0.749	0.76	0.771	0.725	0.923	0.859	0.941	0.941	1.27	0.32	0.268	0.328	0.352	0.313
NCI-H441	0.692	0.773	0.518	0.431	0.496	0.72	0.851	0.591	0.798	0.644	0.942	–	0.628	0.668	0.782	0.511	0.524	0.457	0.568	0.366
NCI-H1975	0.335	0.226	0.237	0.177	0.124	0.733	0.724	0.699	0.758	0.636	0.644	0.65	0.628	0.753	0.708	0.337	0.307	0.348	0.4	0.331
HCC-78	0.371	0.482	0.457	0.387	0.34	0.456	0.369	0.492	0.434	0.412	0.327	0.406	0.244	0.347	0.51	0.802	0.724	0.767	0.763	0.819
NCI-H2085	0.241	0.315	0.289	0.205	0.276	0.827	0.821	0.782	0.872	0.722	1.07	0.919	0.989	0.949	0.984	0.496	0.494	0.502	0.471	0.494
H3255	0.526	0.332	0.381	–	0.319	0.864	0.884	0.818	–	0.84	0.798	0.774	0.48	0.657	0.863	0.581	0.522	0.626	–	0.522
NCI-H2087	0.743	0.76	0.6	0.639	0.383	0.932	0.764	0.668	0.718	0.669	1.19	0.974	1.21	1.07	0.973	0.235	0.163	0.198	0.197	0.193
LC-2-ad	0.57	0.691	0.386	0.27	0.196	0.753	0.748	0.742	0.745	0.764	0.927	0.808	0.897	0.82	0.941	0.992	0.92	0.906	0.981	0.855
PC-3 [JPC-3]	0.985	0.908	1	–	0.696	0.967	1.39	1.22	0.564	0.744	1.04	1.05	1.04	0.972	1.08	0.849	0.726	0.748	0.839	0.845
EBC-1	–	–	–	–	–	–	–	–	–	–	0.992	0.73	0.821	0.811	0.475	–	–	–	–	–
HCC-15	0.66	0.662	0.688	0.426	0.337	0.859	0.901	0.834	0.971	0.807	1.01	0.831	0.73	0.876	0.928	0.341	0.306	0.331	0.293	0.292
NCI-H1563	0.469	0.482	0.508	0.45	0.441	–	–	–	–	–	0.987	0.982	1.06	0.949	1.07	–	–	–	–	–
COR-L 105	0.311	0.319	0.258	0.159	0.158	0.671	0.881	0.763	1	0.764	0.998	0.964	1.17	0.859	1.11	0.391	0.419	0.478	0.462	0.318
NCI-H520	0.177	0.206	0.197	0.187	0.171	0.672	0.755	0.653	0.731	0.609	1.08	0.949	0.784	0.847	0.753	0.648	0.59	0.72	0.723	0.536
LU99A	0.534	0.454	0.472	0.3	0.179	0.443	0.455	0.578	0.53	0.474	0.551	0.451	0.512	0.531	0.528	0.501	0.511	0.545	0.645	0.477
NCI-H1666	0.868	0.814	0.768	0.87	0.781	1.05	0.986	1.03	1.14	0.944	1.09	0.978	1	1.12	0.844	0.84	0.895	0.936	0.907	0.795
